Several values for one entry are separate records, joined by “and”; a condition that tells them apart may be missing. Equal entries are not always repeated. Activity calls are given as the source filed them. The rule behind the calls is not given here.
Assays:
[1] = biological target: Tyrosine-protein kinase ABL2 (Homo sapiens) (UniProt P42684); assay: Inhibition of human ABL2 assessed as percent of control at 2000 nM by KINOMEscan assay relative to control; set-up: scale not given: the % may be the effect or the level left
[2] = biological target: 3-phosphoinositide-dependent protein kinase 1 (Homo sapiens) (UniProt O15530); assay: Inhibition of human PDPK1 assessed as percent of control at 2000 nM by KINOMEscan assay relative to control; set-up: scale not given: the % may be the effect or the level left
Myc-CaP = assay: Inhibition of colony formation in murine castration-resistant Myc-CaP cells at 1 uM in presence of 5 uM enzalutamide by clonogenic assay relative to control; assay type: functional; conditions: Mus musculus
[3] = biological target: Serine/threonine-protein kinase tousled-like 2 (Homo sapiens) (UniProt Q86UE8); assay: Inhibition of human TLK2 assessed as percent of control at 2000 nM by KINOMEscan assay relative to control; set-up: scale not given: the % may be the effect or the level left
[4] = tested on: Tyrosine-protein kinase ABL1 (Homo sapiens), P00519 [UNDEFINED MUTATION]; assay: Inhibition of non-phosphorylated human ABL1 […] mutant assessed as percent of control at 2000 nM by KINOMEscan assay relative to control; set-up: scale not given: the % may be the effect or the level left
[5] = biological target: Mitogen-activated protein kinase 15 (Homo sapiens) (UniProt Q8TD08); assay: Inhibition of human ERK8 assessed as percent of control at 2000 nM by KINOMEscan assay relative to control; set-up: scale not given: the % may be the effect or the level left
[6] = tested on: Tyrosine-protein kinase ABL1 (Homo sapiens), P00519 [F317L]; assay: Inhibition of non-phosphorylated human ABL1 F317L mutant assessed as percent of control at 2000 nM by KINOMEscan assay relative to control; set-up: scale not given: the % may be the effect or the level left
[7] = biological target: Serine/threonine-protein kinase 24 (Homo sapiens) (UniProt Q9Y6E0); assay: Inhibition of human MST3 assessed as percent of control at 2000 nM by KINOMEscan assay relative to control; set-up: scale not given: the % may be the effect or the level left
[8] = tested on: Phosphatidylinositol 4,5-bisphosphate 3-kinase catalytic subunit alpha isoform (Homo sapiens), P42336 [C420R]; assay: Inhibition of human PIK3CA C420R mutant assessed as percent of control at 2000 nM by KINOMEscan assay relative to control; set-up: scale not given: the % may be the effect or the level left
[9] = biological target: Serine/threonine-protein kinase ULK3 (Homo sapiens) (UniProt Q6PHR2); assay: Inhibition of human ULK3 assessed as percent of control at 2000 nM by KINOMEscan assay relative to control; set-up: scale not given: the % may be the effect or the level left
[10] = biological target: Rhodopsin kinase GRK7 (Homo sapiens) (UniProt Q8WTQ7); assay: Inhibition of human GRK7 assessed as percent of control at 2000 nM by KINOMEscan assay relative to control; set-up: scale not given: the % may be the effect or the level left
[11] = biological target: Fibroblast growth factor receptor 2 (Homo sapiens) (UniProt P21802); assay: Inhibition of human FGFR2 assessed as percent of control at 2000 nM by KINOMEscan assay relative to control; set-up: scale not given: the % may be the effect or the level left
[12] = tested on: ALK tyrosine kinase receptor (Homo sapiens), Q9UM73 [L1196M]; assay: Inhibition of human ALK L1196M mutant assessed as percent of control at 2000 nM by KINOMEscan assay relative to control; set-up: scale not given: the % may be the effect or the level left
[13] = biological target: G protein-coupled receptor kinase 3 (Homo sapiens) (UniProt P35626); assay: Inhibition of human GRK3 assessed as percent of control at 2000 nM by KINOMEscan assay relative to control; set-up: scale not given: the % may be the effect or the level left
[14] = biological target: Ephrin type-A receptor 1 (Homo sapiens) (UniProt P21709); assay: Inhibition of human EPHA1 assessed as percent of control at 2000 nM by KINOMEscan assay relative to control; set-up: scale not given: the % may be the effect or the level left
[15] = biological target: RAF proto-oncogene serine/threonine-protein kinase (Homo sapiens) (UniProt P04049); assay: Inhibition of human RAF1 assessed as percent of control at 2000 nM by KINOMEscan assay relative to control; set-up: scale not given: the % may be the effect or the level left
[16] = biological target: LIM domain kinase 2 (Homo sapiens) (UniProt P53671); assay: Inhibition of human LIMK2 assessed as percent of control at 2000 nM by KINOMEscan assay relative to control; set-up: scale not given: the % may be the effect or the level left
[17] = biological target: Ephrin type-B receptor 1 (Homo sapiens) (UniProt P54762); assay: Inhibition of human EPHB1 assessed as percent of control at 2000 nM by KINOMEscan assay relative to control; set-up: scale not given: the % may be the effect or the level left
[18] = biological target: Cyclin-dependent kinase 8 (Homo sapiens) (UniProt P49336); assay: Inhibition of human CDK8 assessed as percent of control at 2000 nM by KINOMEscan assay relative to control; set-up: scale not given: the % may be the effect or the level left; conditions: INHIBITOR
[19] = biological target: Serine/threonine-protein kinase Nek9 (Homo sapiens) (UniProt Q8TD19); assay: Inhibition of human NEK9 assessed as percent of control at 2000 nM by KINOMEscan assay relative to control; set-up: scale not given: the % may be the effect or the level left
[20] = biological target: Serine/threonine-protein kinase TNNI3K (Homo sapiens) (UniProt Q59H18); assay: Inhibition of human TNNI3K assessed as percent of control at 2000 nM by KINOMEscan assay relative to control; set-up: scale not given: the % may be the effect or the level left
[21] = biological target: Transient receptor potential cation channel subfamily M member 6 (Homo sapiens) (UniProt Q9BX84); assay: Inhibition of human TRPM6 assessed as percent of control at 2000 nM by KINOMEscan assay relative to control; set-up: scale not given: the % may be the effect or the level left
[22] = biological target: Cytoplasmic tyrosine-protein kinase BMX (Homo sapiens) (UniProt P51813); assay: Inhibition of human BMX assessed as percent of control at 2000 nM by KINOMEscan assay relative to control; set-up: scale not given: the % may be the effect or the level left
[23] = biological target: Atypical kinase COQ8A, mitochondrial (Homo sapiens) (UniProt Q8NI60); assay: Inhibition of human ADCK3 assessed as percent of control at 2000 nM by KINOMEscan assay relative to control; set-up: scale not given: the % may be the effect or the level left
[24] = biological target: Serine/threonine-protein kinase Chk2 (Homo sapiens) (UniProt O96017); assay: Inhibition of human CHEK2 assessed as percent of control at 2000 nM by KINOMEscan assay relative to control; set-up: scale not given: the % may be the effect or the level left
[25] = biological target: Serine/threonine-protein kinase PLK2 (Homo sapiens) (UniProt Q9NYY3); assay: Inhibition of human PLK2 assessed as percent of control at 2000 nM by KINOMEscan assay relative to control; set-up: scale not given: the % may be the effect or the level left
[26] = biological target: Serine/threonine-protein kinase RIO2 (Homo sapiens) (UniProt Q9BVS4); conditions: INHIBITOR, dose 2000.0 nM
Description: Inhibition of human RIOK2 at 2000 nM by KINOMEscan assay

[27] = biological target: Serine/threonine-protein kinase Nek6 (Homo sapiens) (UniProt Q9HC98); assay: Inhibition of human NEK6 assessed as percent of control at 2000 nM by KINOMEscan assay relative to control; set-up: scale not given: the % may be the effect or the level left
[28] = biological target: Ephrin type-B receptor 3 (Homo sapiens) (UniProt P54753); assay: Inhibition of human EPHB3 assessed as percent of control at 2000 nM by KINOMEscan assay relative to control; set-up: scale not given: the % may be the effect or the level left
[29] = biological target: Serine/threonine-protein kinase B-raf (Homo sapiens) (UniProt P15056); assay: Inhibition of human BRAF assessed as percent of control at 2000 nM by KINOMEscan assay relative to control; set-up: scale not given: the % may be the effect or the level left
[30] = biological target: Glycogen synthase kinase-3 alpha (Homo sapiens) (UniProt P49840); assay: Inhibition of human GSK3A assessed as percent of control at 2000 nM by KINOMEscan assay relative to control; set-up: scale not given: the % may be the effect or the level left; conditions: INHIBITOR

Sequence of Serine/threonine-protein kinase Nek6 (Homo sapiens) (Q9HC98 whole entry): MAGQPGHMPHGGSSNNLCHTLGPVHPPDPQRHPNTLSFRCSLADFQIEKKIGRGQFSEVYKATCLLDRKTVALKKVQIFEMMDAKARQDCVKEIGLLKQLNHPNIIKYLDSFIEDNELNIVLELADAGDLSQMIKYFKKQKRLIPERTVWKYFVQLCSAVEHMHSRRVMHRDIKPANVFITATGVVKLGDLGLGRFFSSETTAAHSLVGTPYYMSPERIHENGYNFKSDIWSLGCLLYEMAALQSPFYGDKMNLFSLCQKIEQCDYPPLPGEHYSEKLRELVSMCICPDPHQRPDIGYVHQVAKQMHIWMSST
Sequence of Atypical kinase COQ8A, mitochondrial (Homo sapiens) (Q8NI60 163-647 limits assumed): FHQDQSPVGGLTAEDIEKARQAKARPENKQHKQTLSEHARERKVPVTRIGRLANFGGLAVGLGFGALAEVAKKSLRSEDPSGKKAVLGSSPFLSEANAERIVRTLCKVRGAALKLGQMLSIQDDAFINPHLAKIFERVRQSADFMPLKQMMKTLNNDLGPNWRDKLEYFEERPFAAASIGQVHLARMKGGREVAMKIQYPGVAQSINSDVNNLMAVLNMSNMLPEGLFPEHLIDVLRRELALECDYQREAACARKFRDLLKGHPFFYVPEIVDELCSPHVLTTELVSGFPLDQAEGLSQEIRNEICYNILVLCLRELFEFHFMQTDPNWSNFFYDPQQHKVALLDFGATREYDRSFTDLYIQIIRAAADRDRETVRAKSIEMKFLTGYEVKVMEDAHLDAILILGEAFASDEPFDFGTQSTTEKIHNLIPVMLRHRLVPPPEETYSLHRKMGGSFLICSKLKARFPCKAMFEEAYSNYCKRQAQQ
Sequence of Cyclin-dependent kinase 8 (Homo sapiens) (P49336 whole entry): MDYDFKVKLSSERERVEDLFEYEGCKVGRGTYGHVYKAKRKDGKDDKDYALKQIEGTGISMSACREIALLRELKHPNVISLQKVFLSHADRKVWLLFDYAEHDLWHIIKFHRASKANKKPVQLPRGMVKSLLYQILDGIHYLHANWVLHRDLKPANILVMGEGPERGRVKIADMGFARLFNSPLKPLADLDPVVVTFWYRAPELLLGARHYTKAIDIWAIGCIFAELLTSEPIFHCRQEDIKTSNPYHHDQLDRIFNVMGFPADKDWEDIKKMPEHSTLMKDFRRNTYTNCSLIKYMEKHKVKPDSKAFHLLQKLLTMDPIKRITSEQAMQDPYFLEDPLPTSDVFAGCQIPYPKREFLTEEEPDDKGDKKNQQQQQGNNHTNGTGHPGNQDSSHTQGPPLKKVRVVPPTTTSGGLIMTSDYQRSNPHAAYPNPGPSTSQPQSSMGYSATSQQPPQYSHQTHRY
Sequence of Ephrin type-B receptor 3 (Homo sapiens) (P54753 whole entry): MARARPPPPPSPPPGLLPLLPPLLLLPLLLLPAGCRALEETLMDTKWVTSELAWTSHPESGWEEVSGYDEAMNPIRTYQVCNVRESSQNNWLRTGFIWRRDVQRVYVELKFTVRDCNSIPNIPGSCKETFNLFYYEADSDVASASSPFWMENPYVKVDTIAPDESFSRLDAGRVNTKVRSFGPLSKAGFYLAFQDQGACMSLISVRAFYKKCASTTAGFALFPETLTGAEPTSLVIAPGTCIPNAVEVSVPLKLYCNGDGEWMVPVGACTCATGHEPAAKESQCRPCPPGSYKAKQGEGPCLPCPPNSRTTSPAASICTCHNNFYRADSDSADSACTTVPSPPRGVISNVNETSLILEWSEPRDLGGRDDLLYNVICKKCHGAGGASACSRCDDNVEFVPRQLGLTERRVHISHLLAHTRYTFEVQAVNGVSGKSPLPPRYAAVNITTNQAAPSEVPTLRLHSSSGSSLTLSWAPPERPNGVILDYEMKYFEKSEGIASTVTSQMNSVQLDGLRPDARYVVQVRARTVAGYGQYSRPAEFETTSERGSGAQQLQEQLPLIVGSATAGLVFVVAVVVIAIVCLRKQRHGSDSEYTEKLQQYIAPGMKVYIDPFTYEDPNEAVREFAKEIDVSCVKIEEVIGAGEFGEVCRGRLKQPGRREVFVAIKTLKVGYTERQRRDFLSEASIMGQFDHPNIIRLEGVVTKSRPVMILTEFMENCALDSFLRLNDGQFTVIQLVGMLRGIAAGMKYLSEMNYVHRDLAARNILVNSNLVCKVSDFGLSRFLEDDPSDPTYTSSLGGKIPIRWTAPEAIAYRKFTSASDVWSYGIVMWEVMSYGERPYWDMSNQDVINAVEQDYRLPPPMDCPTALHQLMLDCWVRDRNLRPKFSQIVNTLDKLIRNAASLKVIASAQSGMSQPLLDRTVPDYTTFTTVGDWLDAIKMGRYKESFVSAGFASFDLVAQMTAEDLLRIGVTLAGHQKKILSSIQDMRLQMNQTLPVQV
Sequence of Phosphatidylinositol 4,5-bisphosphate 3-kinase catalytic subunit alpha isoform (Homo sapiens), P42336 [C420R] (P42336 whole entry C420R, canonical isoform): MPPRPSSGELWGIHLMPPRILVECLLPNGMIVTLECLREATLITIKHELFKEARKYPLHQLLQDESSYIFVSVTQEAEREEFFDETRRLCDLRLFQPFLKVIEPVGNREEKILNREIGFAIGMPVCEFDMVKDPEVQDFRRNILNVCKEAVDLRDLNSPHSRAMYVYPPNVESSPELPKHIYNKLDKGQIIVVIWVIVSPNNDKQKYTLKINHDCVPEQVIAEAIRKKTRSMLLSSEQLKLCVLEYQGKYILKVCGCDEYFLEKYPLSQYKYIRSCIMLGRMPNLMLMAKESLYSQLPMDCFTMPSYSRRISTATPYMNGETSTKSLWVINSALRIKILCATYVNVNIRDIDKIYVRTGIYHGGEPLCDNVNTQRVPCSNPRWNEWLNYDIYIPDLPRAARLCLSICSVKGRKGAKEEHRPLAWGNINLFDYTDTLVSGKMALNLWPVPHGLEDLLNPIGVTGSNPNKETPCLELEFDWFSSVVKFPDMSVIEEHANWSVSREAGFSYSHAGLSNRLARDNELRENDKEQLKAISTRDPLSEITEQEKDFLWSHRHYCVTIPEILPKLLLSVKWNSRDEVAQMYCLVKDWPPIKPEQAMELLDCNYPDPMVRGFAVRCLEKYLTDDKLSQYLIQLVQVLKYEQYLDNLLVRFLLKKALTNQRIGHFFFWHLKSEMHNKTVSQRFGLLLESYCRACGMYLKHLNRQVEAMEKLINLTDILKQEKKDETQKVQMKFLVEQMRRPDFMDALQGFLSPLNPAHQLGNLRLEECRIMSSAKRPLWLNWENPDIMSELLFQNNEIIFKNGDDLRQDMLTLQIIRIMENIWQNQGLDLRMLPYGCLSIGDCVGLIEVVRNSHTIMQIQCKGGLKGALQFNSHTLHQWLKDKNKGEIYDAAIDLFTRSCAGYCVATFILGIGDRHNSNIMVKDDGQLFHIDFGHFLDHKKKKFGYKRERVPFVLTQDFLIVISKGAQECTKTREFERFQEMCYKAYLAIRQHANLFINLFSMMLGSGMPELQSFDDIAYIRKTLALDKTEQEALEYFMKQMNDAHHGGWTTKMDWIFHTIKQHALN
Sequence of 3-phosphoinositide-dependent protein kinase 1 (Homo sapiens) (O15530 whole entry): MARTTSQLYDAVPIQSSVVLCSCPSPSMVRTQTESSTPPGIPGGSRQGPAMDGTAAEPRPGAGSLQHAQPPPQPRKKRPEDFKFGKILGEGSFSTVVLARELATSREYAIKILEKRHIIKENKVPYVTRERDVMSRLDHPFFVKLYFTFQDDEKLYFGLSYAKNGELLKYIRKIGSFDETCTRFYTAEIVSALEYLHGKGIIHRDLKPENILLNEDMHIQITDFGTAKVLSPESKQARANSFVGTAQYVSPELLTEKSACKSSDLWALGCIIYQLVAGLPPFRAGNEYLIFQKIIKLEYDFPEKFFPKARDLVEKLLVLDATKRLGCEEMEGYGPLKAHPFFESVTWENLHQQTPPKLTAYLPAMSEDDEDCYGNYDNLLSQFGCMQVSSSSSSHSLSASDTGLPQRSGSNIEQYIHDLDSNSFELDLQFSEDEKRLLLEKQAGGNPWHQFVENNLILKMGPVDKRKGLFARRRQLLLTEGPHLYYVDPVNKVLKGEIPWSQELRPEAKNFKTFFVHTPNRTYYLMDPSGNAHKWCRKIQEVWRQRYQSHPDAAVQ
Sequence of Tyrosine-protein kinase ABL1 (Homo sapiens), P00519 [UNDEFINED MUTATION] (P00519 whole entry, looked up, change not shown): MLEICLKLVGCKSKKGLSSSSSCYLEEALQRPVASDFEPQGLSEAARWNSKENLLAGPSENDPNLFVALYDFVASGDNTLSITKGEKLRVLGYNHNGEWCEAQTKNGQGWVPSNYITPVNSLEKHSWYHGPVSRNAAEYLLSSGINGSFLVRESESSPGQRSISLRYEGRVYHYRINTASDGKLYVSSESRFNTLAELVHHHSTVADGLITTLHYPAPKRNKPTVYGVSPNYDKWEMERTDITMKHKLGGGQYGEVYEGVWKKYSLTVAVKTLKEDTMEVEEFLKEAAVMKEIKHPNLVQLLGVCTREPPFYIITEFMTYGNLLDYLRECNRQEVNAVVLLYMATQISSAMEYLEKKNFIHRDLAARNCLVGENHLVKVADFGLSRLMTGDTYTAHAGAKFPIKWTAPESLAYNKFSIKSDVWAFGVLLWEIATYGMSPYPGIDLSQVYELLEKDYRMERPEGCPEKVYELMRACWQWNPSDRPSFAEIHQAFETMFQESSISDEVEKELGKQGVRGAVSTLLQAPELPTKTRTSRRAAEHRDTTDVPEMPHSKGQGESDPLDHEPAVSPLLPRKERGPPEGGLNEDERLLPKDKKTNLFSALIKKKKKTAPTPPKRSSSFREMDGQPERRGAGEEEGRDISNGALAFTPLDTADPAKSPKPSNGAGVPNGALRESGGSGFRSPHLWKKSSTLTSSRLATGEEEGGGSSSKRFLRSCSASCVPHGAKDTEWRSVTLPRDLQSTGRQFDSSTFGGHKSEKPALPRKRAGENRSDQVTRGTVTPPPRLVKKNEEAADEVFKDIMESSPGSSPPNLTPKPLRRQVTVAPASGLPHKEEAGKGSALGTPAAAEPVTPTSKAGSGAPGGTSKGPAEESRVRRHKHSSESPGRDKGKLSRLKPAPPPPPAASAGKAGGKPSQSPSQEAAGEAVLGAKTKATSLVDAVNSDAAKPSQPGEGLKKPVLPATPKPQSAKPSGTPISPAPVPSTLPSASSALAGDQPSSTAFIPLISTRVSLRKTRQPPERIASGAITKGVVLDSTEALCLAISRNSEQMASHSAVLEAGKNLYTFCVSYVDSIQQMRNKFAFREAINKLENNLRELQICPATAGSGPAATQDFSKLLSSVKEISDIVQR

SMILES: CN(C)C(=O)c1ccc(N2CCCN(c3ccnc4sc(C(N)=O)c(N)c34)CC2)cc1
- Activity [1]: 85% and 91%
- Activity [2]: 100% and 96%
- inhibition (Myc-CaP): Active
- Activity [3]: 100% and 97%
- Activity [4]: 100% and 76%
- Activity [5]: 98% and 99%
- Activity [6]: 99% and 100%
- Activity [7]: 97% and 84%
- Activity [8]: 100% and 86%
- Activity [9]: 96% and 79%
- Activity [10]: 100% and 92%
- Activity [11]: 99% and 98%
- Activity [12]: 96% and 92%
- Activity [13]: 99% and 87%
- Activity [14]: 92% and 95%
- Activity [15]: 97% and 100%
- Activity [16]: 91% and 98%
- Activity [17]: 88%
- Activity [18]: 2.6% and 0.25%
- Activity [19]: 100% and 89%
- Activity [20]: 100%
- Activity [21]: 100% and 80%
- Activity [22]: 93% and 100%
- Activity [23]: 90% and 100%
- Activity [24]: 92%
- Activity [25]: 100% and 86%
- inhibition [26]: > 65%
- Activity [27]: 92% and 100%
- Activity [28]: 96% and 94%
- Activity [29]: 100% and 96%
- Activity [30]: 31% and 34%

Reference: ChEMBL document CHEMBL4804286, “3-amino-4-(4-(4 (dimethylcarbamoyl) phenyl)-1,4-diazepan-1-yl) thieno [2,3-b] pyridine-2-carboxamide for use in cancer therapy and formulations comprising the same” (2020)
